Assay results reported in ChEMBL document CHEMBL1201862, “PubChem BioAssay data set” (2004).
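In this assay, cells in 96-well plates receive the compound at five concentrations for 48 hours. Endpoints are linearly interpolated between the surrounding concentrations. GI50 is the concentration that inhibits growth by half.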 Calls of active or inactive are those of the source. No stated cut-off is given here; in the data, active = GI50 up to about 1.1 µM and inactive = higher.

Legend:
Experiment in all cases: NCI anticancer screen, dose series, 48 h
SF-268 = test system: SF-268
LOX IMVI = test system: LOX IMVI
ACHN = test system: ACHN
NCI/ADR-RES = test system: NCI/ADR-RES
A498 = test system: A498
OVCAR-5 = test system: OVCAR-5
MDA-MB-435 = test system: MDA-MB-435
SK-OV-3 = test system: SK-OV-3
SF-295 = test system: SF-295
SNB-75 = test system: SNB-75
UO-31 = test system: UO-31
OVCAR-4 = test system: OVCAR-4
SK-MEL-2 = test system: SK-MEL-2
HOP-92 = test system: HOP-92
KM12 = test system: KM12
M14 = test system: M14
OVCAR-8 = test system: OVCAR-8
CAKI-1 = test system: CAKI-1
SK-MEL-28 = test system: SK-MEL-28

Measured: GI50

C[C@]12CC(c3ccccc3O1)C(C(=O)NC13CC4CC(CC(C4)C1)C3)C(=O)N2 (stereo not given in full)
inactive: SF-268 32.1 µM | LOX IMVI 23.4 µM | ACHN 34.1 µM | NCI/ADR-RES 20.3 µM | A498 39.9 µM | OVCAR-5 19.5 µM | MDA-MB-435 26.2 µM | SK-OV-3 64.9 µM | SF-295 44.8 µM | SNB-75 27.5 µM | UO-31 20 µM | OVCAR-4 52.6 µM | SK-MEL-2 19.9 µM | HOP-92 20.7 µM | KM12 35.5 µM | M14 15.6 µM | OVCAR-8 26.6 µM | CAKI-1 38.6 µM | SK-MEL-28 28.3 µM

COC(=O)Cc1c(-c2[nH]c3ccccc3c2CC(=O)OC)[nH]c2ccccc12
inactive: SF-268 20.4 µM | LOX IMVI > 58.6 µM | ACHN > 58.9 µM | NCI/ADR-RES > 57.3 µM | A498 38.3 µM | OVCAR-5 > 54.8 µM | MDA-MB-435 > 54 µM | SK-OV-3 > 58.1 µM | SF-295 > 57.9 µM | SNB-75 > 57.4 µM | UO-31 > 55.3 µM | OVCAR-4 > 49.9 µM | SK-MEL-2 > 57.7 µM | HOP-92 > 50.9 µM | KM12 26.3 µM | M14 > 52.4 µM | OVCAR-8 32.2 µM | CAKI-1 > 37.2 µM | SK-MEL-28 > 55 µM

COc1ccc2nc3cc(Cl)ccc3c(Nc3ccc(O)c(CN4CCN(C)CC4)c3)c2c1
inactive: SF-268 2.28 µM | LOX IMVI 1.71 µM | ACHN 1.64 µM | NCI/ADR-RES 2.08 µM | A498 4.51 µM | OVCAR-5 2.41 µM | MDA-MB-435 1.62 µM | SK-OV-3 5.79 µM | SF-295 1.91 µM | SNB-75 1.62 µM | UO-31 1.9 µM | OVCAR-4 1.65 µM | SK-MEL-2 1.81 µM | HOP-92 1.72 µM | KM12 1.91 µM | M14 1.99 µM | OVCAR-8 1.79 µM | CAKI-1 1.92 µM | SK-MEL-28 1.92 µM

CCOC(=O)c1c2ccccc2n2c(=O)n(-c3ccc(OC)cc3)nnc12
inactive: SF-268 16.2 µM | LOX IMVI 17.3 µM | ACHN 31.1 µM | NCI/ADR-RES 31 µM | A498 44.3 µM | OVCAR-5 46.1 µM | MDA-MB-435 > 37.1 µM | SK-OV-3 26.7 µM | SF-295 20.3 µM | SNB-75 14.5 µM | UO-31 29.4 µM | OVCAR-4 22.5 µM | SK-MEL-2 22.8 µM | HOP-92 21.7 µM | KM12 88.1 µM | M14 51.1 µM | OVCAR-8 20.6 µM | CAKI-1 > 45.7 µM | SK-MEL-28 65.6 µM

N/N=C1N=C(Cl)/C(=C/c2ccco2)N\1
inactive: SF-268 34.3 µM | LOX IMVI 27.9 µM | ACHN 50.4 µM | NCI/ADR-RES 44.5 µM | A498 > 100 µM | OVCAR-5 > 100 µM | MDA-MB-435 40.6 µM | SK-OV-3 76 µM | SF-295 38.1 µM | SNB-75 32.7 µM | UO-31 43.1 µM | OVCAR-4 31.6 µM | SK-MEL-2 36.2 µM | HOP-92 47.2 µM | KM12 28.2 µM | M14 35.2 µM | OVCAR-8 44.5 µM | CAKI-1 48.6 µM | SK-MEL-28 60.8 µM

NC1=Nc2ccccc2Sc2nncn21
inactive: SF-268 > 100 µM | LOX IMVI > 100 µM | ACHN > 100 µM | NCI/ADR-RES > 100 µM | A498 > 100 µM | OVCAR-5 > 100 µM | MDA-MB-435 > 100 µM | SK-OV-3 > 100 µM | SF-295 > 100 µM | SNB-75 > 100 µM | UO-31 > 100 µM | OVCAR-4 > 100 µM | SK-MEL-2 > 100 µM | HOP-92 > 100 µM | KM12 > 100 µM | M14 > 100 µM | OVCAR-8 > 100 µM | CAKI-1 > 100 µM | SK-MEL-28 > 100 µM

CCCCCCCCCCC/C=C(/C(=O)CCCO[Si](C)(C)C(C)(C)C)C(=O)OC
inactive: SF-268 > 100 µM | LOX IMVI > 100 µM | ACHN > 100 µM | NCI/ADR-RES > 100 µM | A498 > 100 µM | OVCAR-5 > 100 µM | MDA-MB-435 > 100 µM | SK-OV-3 > 100 µM | SF-295 > 100 µM | SNB-75 > 100 µM | UO-31 > 100 µM | OVCAR-4 > 100 µM | SK-MEL-2 > 100 µM | HOP-92 > 100 µM | KM12 > 100 µM | M14 > 100 µM | OVCAR-8 > 100 µM | CAKI-1 > 100 µM | SK-MEL-28 > 100 µM

CCOc1cc(NC(C)=O)ccc1C(=O)NNS(=O)(=O)c1ccc(Cl)cc1Cl
inactive: SF-268 > 50 µM | LOX IMVI 45.5 µM | ACHN > 50 µM | NCI/ADR-RES > 50 µM | A498 > 50 µM | OVCAR-5 > 50 µM | MDA-MB-435 12.7 µM | SK-OV-3 > 50 µM | SF-295 > 50 µM | SNB-75 > 50 µM | UO-31 > 50 µM | OVCAR-4 > 50 µM | SK-MEL-2 > 50 µM | HOP-92 > 50 µM | KM12 31.5 µM | M14 > 50 µM | OVCAR-8 > 50 µM | CAKI-1 > 50 µM | SK-MEL-28 > 50 µM

NC(C(=O)O)c1cc(O)no1 (stereo not given)
inactive: SF-268 > 100 µM | LOX IMVI > 100 µM | ACHN > 100 µM | NCI/ADR-RES > 100 µM | A498 > 100 µM | OVCAR-5 > 100 µM | MDA-MB-435 > 100 µM | SK-OV-3 > 100 µM | SF-295 > 100 µM | SNB-75 > 100 µM | UO-31 > 100 µM | OVCAR-4 > 100 µM | SK-MEL-2 > 100 µM | HOP-92 > 100 µM | KM12 > 100 µM | M14 > 100 µM | OVCAR-8 > 100 µM | CAKI-1 > 100 µM | SK-MEL-28 > 100 µM

NC1CC(Cl)c2c(Cl)sc(Cl)c21 (stereo not given)
inactive: SF-268 > 100 µM | LOX IMVI > 100 µM | ACHN > 100 µM | NCI/ADR-RES > 100 µM | A498 > 100 µM | OVCAR-5 > 100 µM | MDA-MB-435 > 100 µM | SK-OV-3 > 100 µM | SF-295 > 100 µM | SNB-75 > 100 µM | UO-31 > 100 µM | OVCAR-4 > 100 µM | SK-MEL-2 > 100 µM | HOP-92 > 100 µM | KM12 > 100 µM | M14 > 100 µM | OVCAR-8 > 100 µM | CAKI-1 > 100 µM | SK-MEL-28 > 100 µM
